Columns and labels:
[1] = biological target: T1, MAGL (Homo sapiens, UniProt Q99685); assay: In vitro competitive activity-based protein profiling (human), MAGL; type: biochemical; conditions: for inhibition at 1 µM: 1 μM inhibitor, human proteome, 30 min preincubation at 37° C, read-out: MAGL % inh. 1 μM (human); for IC50: human PC3
T1 construct: Proteomes (human prefrontal cortex or cell membrane fractions); from tissue
T1 sequence (Q99685 1-303): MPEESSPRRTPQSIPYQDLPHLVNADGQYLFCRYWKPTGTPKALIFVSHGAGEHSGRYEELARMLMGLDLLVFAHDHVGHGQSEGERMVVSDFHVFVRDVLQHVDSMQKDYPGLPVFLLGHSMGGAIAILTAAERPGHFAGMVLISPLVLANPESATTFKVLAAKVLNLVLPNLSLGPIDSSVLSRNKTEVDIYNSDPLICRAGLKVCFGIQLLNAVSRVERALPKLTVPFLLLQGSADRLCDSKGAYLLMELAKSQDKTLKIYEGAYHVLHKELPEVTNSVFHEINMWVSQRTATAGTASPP
How it was run: (§1)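 Human prefrontal cortex or cell membrane proteomes (1.0-2.0 mg/mL protein) preincubated 30 min at 37° C with inhibitor, then labeled 30 min RT with FP-Rh or JW912 probe. After SDS-PAGE, activity taken from fluorescent band intensity for each enzyme.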

[2] = biological target: T2, ABHD6 (Homo sapiens, UniProt Q9BV23); assay: In vitro competitive activity-based protein profiling (human), ABHD6; type: biochemical; conditions: human PC3
T2 construct: Proteomes (human prefrontal cortex or cell membrane fractions); endogenous in cells; human prefrontal cortex
T2 sequence (Q9BV23 1-337): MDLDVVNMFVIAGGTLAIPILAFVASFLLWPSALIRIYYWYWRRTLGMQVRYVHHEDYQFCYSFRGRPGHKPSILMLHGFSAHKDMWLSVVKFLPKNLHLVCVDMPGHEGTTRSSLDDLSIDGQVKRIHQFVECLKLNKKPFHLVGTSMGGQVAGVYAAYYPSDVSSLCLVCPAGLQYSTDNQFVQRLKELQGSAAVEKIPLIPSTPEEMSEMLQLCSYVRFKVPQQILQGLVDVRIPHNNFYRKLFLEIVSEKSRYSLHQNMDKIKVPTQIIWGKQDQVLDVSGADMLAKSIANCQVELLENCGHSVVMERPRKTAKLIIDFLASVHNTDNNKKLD
How it was run: as §1

[3] = biological target: T3, MAGL (Mus musculus, UniProt O35678); assay: In vitro competitive activity-based protein profiling (mouse), MAGL; type: biochemical; conditions: for inhibition at 1 µM: 1 μM inhibitor, mouse brain membrane fraction or cell lysates, read-out: MAGL % inh. 1 μM (mouse)
T3 construct: Proteomes (mouse brain membrane fraction or cell lysates); from tissue; host or cells: mouse brain membrane fraction or cell lysates
T3 sequence (O35678 1-303): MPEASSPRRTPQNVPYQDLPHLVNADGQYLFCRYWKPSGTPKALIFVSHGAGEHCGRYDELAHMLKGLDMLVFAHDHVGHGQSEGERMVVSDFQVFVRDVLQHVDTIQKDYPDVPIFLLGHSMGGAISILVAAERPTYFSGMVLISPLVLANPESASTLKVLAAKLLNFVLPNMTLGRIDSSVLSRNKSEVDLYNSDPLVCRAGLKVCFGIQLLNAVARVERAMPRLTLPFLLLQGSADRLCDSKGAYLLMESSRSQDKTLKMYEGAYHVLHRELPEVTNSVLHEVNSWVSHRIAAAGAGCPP
How it was run: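 Mouse brain membrane fraction or cell lysate proteomes (50 μL, 1.0 mg/mL total protein) were preincubated with inhibitors at varying concentrations for 30 min at 37° C. FP-Rh (1.0 μL, 50 μM in DMSO) was then added for a further 30 min at 37° C. Samples were quenched with 4× SDS loading buffer and resolved by SDS-PAGE. MAGL activity was quantified from fluorescent gel band intensity using ImageJ 1.49 k.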

[4] = biological target: T4, ABHD6 (Mus musculus, UniProt Q8R2Y0); assay: In vitro competitive activity-based protein profiling (mouse), ABHD6; type: biochemical; conditions: 1 μM inhibitor, mouse brain membrane fraction or cell lysates; read-out: ABHD6 % inh. 1 μM (mouse)
T4 construct: Proteomes (mouse brain membrane fraction or cell lysates); from tissue; host or cells: mouse brain membrane fraction or cell lysates
T4 sequence (Q8R2Y0 1-336): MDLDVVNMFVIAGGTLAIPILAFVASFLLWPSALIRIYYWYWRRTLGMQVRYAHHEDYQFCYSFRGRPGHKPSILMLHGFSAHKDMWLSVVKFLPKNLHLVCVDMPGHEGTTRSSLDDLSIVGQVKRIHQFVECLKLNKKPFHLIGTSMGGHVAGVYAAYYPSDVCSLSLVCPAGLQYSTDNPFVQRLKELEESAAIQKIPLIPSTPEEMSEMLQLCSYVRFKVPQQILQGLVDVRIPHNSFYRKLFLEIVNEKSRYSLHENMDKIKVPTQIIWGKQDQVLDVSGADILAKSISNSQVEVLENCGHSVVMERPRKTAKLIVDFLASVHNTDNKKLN
How it was run: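 Mouse brain membrane proteome or cell lysate (1.0 mg/mL protein) preincubated 30 min at 37 °C with inhibitor, then labelled 30 min at 37 °C with FP-rhodamine probe. Remaining MAGL and ABHD6 activity quantified by in-gel fluorescence band intensity after SDS-PAGE; values are % inhibition at 1 μM.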

[5] = biological target: T3, MAGL; assay: Mouse brain proteomes from inhibitor treated mice, MAGL inhibition; type: in vivo; conditions: 5 mg/kg oral gavage, C57Bl/6J mouse brain, 4 h following administration; read-out: MAGL % inh. 5 mg/kg (mouse)
Experimental: Preparation of Mouse Brain Proteomes from Inhibitor Treated Mice.
Inhibitors were administered to wild-type C57Bl/6J by oral gavage in a vehicle of polyethylene glycol. Each animal was sacrificed 4 h following administration and brain proteomes were prepared and analyzed according to previously established methods (See Niphakis, M. J., et al. (2011) ACS Chem. Neurosci. and Long, J. Z., et al. Nat. Chem. Biol. 5:37-44).

SMILES: O=C(O)C1CCN(c2c(CN3CCN(C(=O)OC(C(F)(F)F)C(F)(F)F)CC3)ccc(Cl)c2F)CC1 [Example 62, 1-(3-chloro-2-fluoro-6-((4-(((1,1,1,3,3,3-hexafluoropropan-2-yl)oxy)carbonyl)piperazin-1-yl)methyl)phenyl)piperidine-4-carboxylic acid]
- inhibition at 1 µM [1]: ≥ 75%
- IC50 [1]: ≤ 0.1 µM
- IC50 [2]: 1 to 10 µM
- inhibition at 1 µM [3]: ≥ 75%
- inhibition at 1 µM [4]: 50 to 75%
- inhibition at 5 mg/kg [5]: ≥ 75%

SMILES: CC1(C(=O)O)CCN(c2cc(Cl)ccc2CN2CCN(C(=O)OC(C(F)(F)F)C(F)(F)F)CC2)CC1 [Example 63, 1-(5-chloro-2-((4-(((1,1,1,3,3,3-hexafluoropropan-2-yl)oxy)carbonyl)piperazin-1-yl)methyl)phenyl)-4-methylpiperidine-4-carboxylic acid]
- inhibition at 1 µM [1]: ≥ 75%
- IC50 [1]: ≤ 0.1 µM
- IC50 [2]: 0.1 to 1 µM
- inhibition at 1 µM [3]: ≥ 75%
- inhibition at 1 µM [4]: 50 to 75%
- inhibition at 5 mg/kg [5]: ≥ 75%

SMILES: O=C(O)[C@@H]1CCCN1C1CCN(c2cc(C(F)(F)F)ccc2CN2CCN(C(=O)OC(C(F)(F)F)C(F)(F)F)CC2)CC1 [Example 64, (1-(2-((4-(((1,1,1,3,3,3-hexafluoropropan-2-yl)oxy)carbonyl)piperazin-1-yl)methyl)-5-(trifluoromethyl)phenyl)piperidin-4-yl)proline]
- inhibition at 1 µM [1]: ≥ 75%
- IC50 [1]: ≤ 0.1 µM
- IC50 [2]: 1 to 10 µM
- inhibition at 1 µM [3]: ≥ 75%
- inhibition at 1 µM [4]: 50 to 75%
- inhibition at 5 mg/kg [5]: 0 to 25%

SMILES: O=C(O)C1CCN(c2cc(OC(F)(F)F)ccc2CN2CCN(C(=O)OC(C(F)(F)F)C(F)(F)F)CC2)CC1 [Example 67, 1-(2-((4-(((1,1,1,3,3,3-hexafluoropropan-2-yl)oxy)carbonyl)piperazin-1-yl)methyl)-5-(trifluoromethoxy)phenyl)piperidine-4-carboxylic acid]
- inhibition at 1 µM [1]: ≥ 75%
- IC50 [1]: ≤ 0.1 µM
- IC50 [2]: 1 to 10 µM
- inhibition at 1 µM [3]: ≥ 75%
- IC50 ([3]; mouse proteome): ≤ 0.1 µM
- inhibition at 1 µM [4]: 50 to 75%
- inhibition at 5 mg/kg [5]: ≥ 75%

SMILES: O=C(O)[C@@H]1CCCN(c2cc(C(F)(F)F)ccc2CN2CCN(C(=O)OC(C(F)(F)F)C(F)(F)F)CC2)C1 [Example 70, (R)-1-(2-((4-(((1,1,1,3,3,3-hexafluoropropan-2-yl)oxy)carbonyl)piperazin-1-yl)methyl)-5-(trifluoromethyl)phenyl)piperidine-3-carboxylic acid]
- inhibition at 1 µM [1]: ≥ 75%
- IC50 [1]: ≤ 0.1 µM
- IC50 [2]: 1 to 10 µM
- inhibition at 1 µM [3]: ≥ 75%
- inhibition at 1 µM [4]: 0 to 25%
- inhibition at 5 mg/kg [5]: ≥ 75%

SMILES: O=C(O)C1CCN(c2cc(S(F)(F)(F)(F)F)ccc2CN2CCN(C(=O)OC(C(F)(F)F)C(F)(F)F)CC2)CC1 [Example 78, 1-(2-((4-(((1,1,1,3,3,3-hexafluoropropan-2-yl)oxy)carbonyl)piperazin-1-yl)methyl)-5-(pentafluoro-16-sulfaneyl)phenyl)piperidine-4-carboxylic acid]
- inhibition at 1 µM [1]: ≥ 75%
- IC50 [1]: ≤ 0.1 µM
- IC50 [2]: 1 to 10 µM
- inhibition at 1 µM [3]: ≥ 75%
- inhibition at 1 µM [4]: ≥ 75%
- inhibition at 5 mg/kg [5]: ≥ 75%

— US10899737B2, “Piperazine carbamates and methods of making and using same” (Lundbeck La Jolla Research Center, Inc., priority 2016, dated 2021)
